Consider three compounds from US20230014151A1, “COMBINATION ANTIVIRAL THERAPY FOR MEASLES” (The Trustees of Columbia University in the City of New York, priority 2019, published 2023).

Each structure is given as a SMILES string. Entries after “also recorded” stand apart in the source; their conditions may differ. Where two headings read alike, the source gives them in different places. Square brackets hold non-standard residues; d marks the D form. Peptide text beside a SMILES is read from it. * marks the point of attachment. Cbz = O=C(OCc1ccccc1)*

One assay concerns BG505 (HIV-1 strain). Particulars: read-out: IC50 BG505; pseudovirus, TZM-BL cells.
Assay [1] relates to murine leukemia viruses (MLV). Particulars: read-out: IC50 MLV; pseudovirus, TZM-BL cells.
Assay [2] addresses viral glycoproteins (H and F); Nectin-4 (Measles virus, UniProt Q786F3). As to the kind of experiment: beta-galactosidase complementation-based fusion assay, Nectin-4 target cells.
For a further assay, the system named is B41 (HIV-1 strain). The settings on record: read-out: IC50 B41; pseudovirus, TZM-BL cells.
The test system of assay [3] is vesicular stomatitis virus (VSV). The settings on record: 16 h.
The subject of another assay is MN (HIV-1 strain). The settings on record: read-out: IC50 MN; pseudovirus, TZM-BL cells.
A further assay has as its system 16055 (HIV-1 strain). Particulars: read-out: IC50 16055; pseudovirus, TZM-BL cells.
Assay [4] deals with soluble MeV F. Type of assay: biochemical, measles virus.
For assay [5], the target named is T1, soluble MeV F (Measles virus, UniProt Q786F3).
T1 construct: produced in a soluble form, with the ablation of the intracytoplasmic and transmembrane domains; Tobacco Etch Virus protease site (C); foldomer (trimerization) domain (C); 6xHis (C); made in house; host or cells: 293T (culture supernatant)
T1 sequence (Q786F3 113-494, added parts left off): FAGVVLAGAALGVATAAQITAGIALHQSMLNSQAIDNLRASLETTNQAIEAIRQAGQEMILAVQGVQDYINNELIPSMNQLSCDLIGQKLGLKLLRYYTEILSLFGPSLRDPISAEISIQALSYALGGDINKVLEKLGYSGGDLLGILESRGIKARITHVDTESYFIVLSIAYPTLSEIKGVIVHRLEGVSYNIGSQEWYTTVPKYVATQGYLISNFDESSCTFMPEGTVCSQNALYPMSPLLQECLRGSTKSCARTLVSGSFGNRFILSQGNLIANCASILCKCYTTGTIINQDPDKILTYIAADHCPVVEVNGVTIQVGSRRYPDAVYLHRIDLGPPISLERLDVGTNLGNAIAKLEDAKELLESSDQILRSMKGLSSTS
T1 sequence (Q786F3 24-112): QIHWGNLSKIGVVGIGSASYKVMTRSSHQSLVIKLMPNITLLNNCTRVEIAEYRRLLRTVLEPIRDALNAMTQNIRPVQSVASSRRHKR
Type of assay: biochemical. Particulars: peptide in culture medium, supernatant 24 hours post transfection.

Assay [6] concerns the target viral glycoproteins (H and F); CD150. As to the kind of experiment: beta-galactosidase complementation-based fusion assay, CD150 target cells. Particulars: for IC90: read-out: CD150 IC90.
The next assay deals with virus bearing L454W F. Briefly: lethal infection of suckling mice, intranasal peptide. The settings on record: intranasal administration.
A further assay relates to wt MeV. The settings on record: in vitro, ex vivo; cited from earlier work.
A further assay deals with MeV “WTFb” strain. Briefly: in vivo efficacy, intranasal peptides in MeV-infected cotton rats. Particulars: intranasal 24 h and 12 h before infection, 5 m/kg dose, 4 days post-infection. Here is the method: FIGS. 84-93 further describe the invention. […] Intranasal administration of MeV-derived peptides protects cotton rats from MV infection. Cotton rats (n=4) were infected intranasally with MeV “WTFb” strain. Treatment was given intranasally 24 h and 12 h before infection in 100 ul (5 m/kg dose of peptides). The animals were euthanized 4 days post-infection.

The next assay has as its system MeV IC323-EGFP-F L454W. Briefly: organotypic brain cultures (OBC) infected with MeV bearing L454W F. The format is cell-based, mice.

viral glycoproteins (H and F); CD150, sequence (Q786F3 24-112): as above
viral glycoproteins (H and F); CD150, sequence (Q786F3 113-550): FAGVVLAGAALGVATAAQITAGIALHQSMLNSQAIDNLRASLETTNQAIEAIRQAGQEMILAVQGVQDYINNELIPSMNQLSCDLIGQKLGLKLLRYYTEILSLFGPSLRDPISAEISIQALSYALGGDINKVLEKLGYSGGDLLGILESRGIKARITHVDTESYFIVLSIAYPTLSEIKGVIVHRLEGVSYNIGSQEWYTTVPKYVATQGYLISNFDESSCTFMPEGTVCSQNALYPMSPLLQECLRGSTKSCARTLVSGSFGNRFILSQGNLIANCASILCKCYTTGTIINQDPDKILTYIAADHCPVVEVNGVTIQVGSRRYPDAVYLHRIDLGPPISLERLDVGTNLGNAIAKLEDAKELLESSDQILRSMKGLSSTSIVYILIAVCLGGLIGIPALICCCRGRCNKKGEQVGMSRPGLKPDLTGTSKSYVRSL
viral glycoproteins (H and F); Nectin-4, sequence (Q786F3 24-112): as the sequence (Q786F3 24-112) above

Regarding `O=C(CNC(=O)[C@H](Cc1ccccc1)NC(=O)[C@@H](Cc1ccccc1)NC(=O)OCc1ccccc1)NCC(=O)N[C@@H](CO)C(=O)NCC(=O)N[C@@H](CO)C(=O)NCC(=O)N[C@@H](CS)C(=O)O` [FIP, Z-D-FFG-GSGSG-C (SEQ ID NO. 52)] (Cbz-[dF]FGGSGSGC-OH), the IC50 (as a rule, the concentration that inhibits the measured activity by half) in the assay with BG505 (HIV-1 strain) is greater than 5000 nM; in assay [1] it was greater than 5000 nM; in assay [2] (IC50, Table 2 (salient peptides), Nectin-4 target cells), 9720 ± 2730 nM; in assay [2] (Nectin4 IC50, Table 3 (extended version)) it was 9720 ± 2730 nM; with B41 (HIV-1 strain), greater than 5000 nM; in [3], greater than 5000 nM. In addition, the IC50 with MN (HIV-1 strain) and with 16055 (HIV-1 strain) was greater than 5000 nM each time. Also, the IC90 in [2] and in [2] (read-out: Nectin4 IC90) was greater than 10000 nM each time.
In the case of `CC[C@H](C)[C@H](NC(=O)[C@H](C)NC(=O)[C@H](CC(N)=O)NC(=O)CNC(=O)[C@H](CC(C)C)NC(=O)[C@H](CC(N)=O)NC(=O)[C@@H](NC(=O)CNC(=O)[C@@H](NC(=O)[C@H](CC(=O)O)NC(=O)[C@H](CC(C)C)NC(=O)[C@H](CCCNC(=N)N)NC(=O)[C@H](CCC(=O)O)NC(=O)[C@H](CC(C)C)NC(=O)[C@H](CO)NC(=O)[C@@H](NC(=O)[C@@H]1CCCN1C(=O)[C@@H]1CCCN1C(=O)CNC(=O)[C@H](CO)NC(=O)CNC(=O)[C@H](CO)NC(=O)CNC(=O)CNC(=O)[C@H](Cc1ccccc1)NC(=O)[C@@H](Cc1ccccc1)NC(=O)OCc1ccccc1)[C@@H](C)CC)C(C)C)[C@@H](C)O)C(=O)N[C@@H](C)C(=O)N[C@@H](CCCCN)C(=O)N[C@@H](CC(C)C)C(=O)N[C@@H](CCC(=O)O)C(=O)N[C@@H](CC(=O)O)C(=O)N[C@@H](C)C(=O)N[C@@H](CCCCN)C(=O)N[C@@H](CCC(=O)O)C(=O)N[C@@H](CC(C)C)C(=O)N[C@@H](CC(C)C)C(=O)N[C@@H](CCC(=O)O)C(=O)N[C@@H](CO)C(=O)N[C@@H](CO)C(=O)N[C@@H](CC(=O)O)C(=O)N[C@@H](CCC(N)=O)C(=O)N[C@H](C(=O)N[C@@H](CC(C)C)C(=O)N[C@@H](CCCNC(=N)N)C(=O)NCC(=O)N[C@@H](CO)C(=O)NCC(=O)N[C@@H](CO)C(=O)NCC(=O)N[C@@H](CSC1CC(=O)N(CCC(=O)NCCOCCOCCOCCOCCOCCOCCOCCOCCOCCOCCOCCNC(=O)CCN2C(=O)CC(SC[C@H](NC(=O)CNC(=O)[C@H](CO)NC(=O)CNC(=O)[C@H](CO)NC(=O)CNC(=O)[C@H](CCCNC(=N)N)NC(=O)[C@H](CC(C)C)NC(=O)[C@@H](NC(=O)[C@H](CCC(N)=O)NC(=O)[C@H](CC(=O)O)NC(=O)[C@H](CO)NC(=O)[C@H](CO)NC(=O)[C@H](CCC(=O)O)NC(=O)[C@H](CC(C)C)NC(=O)[C@H](CC(C)C)NC(=O)[C@H](CCC(=O)O)NC(=O)[C@H](CCCCN)NC(=O)[C@H](C)NC(=O)[C@H](CC(=O)O)NC(=O)[C@H](CCC(=O)O)NC(=O)[C@H](CC(C)C)NC(=O)[C@H](CCCCN)NC(=O)[C@H](C)NC(=O)[C@@H](NC(=O)[C@H](C)NC(=O)[C@H](CC(N)=O)NC(=O)CNC(=O)[C@H](CC(C)C)NC(=O)[C@H](CC(N)=O)NC(=O)[C@@H](NC(=O)CNC(=O)[C@@H](NC(=O)[C@H](CC(=O)O)NC(=O)[C@H](CC(C)C)NC(=O)[C@H](CCCNC(=N)N)NC(=O)[C@H](CCC(=O)O)NC(=O)[C@H](CC(C)C)NC(=O)[C@H](CO)NC(=O)[C@@H](NC(=O)[C@@H]3CCCN3C(=O)[C@@H]3CCCN3C(=O)CNC(=O)[C@H](CO)NC(=O)CNC(=O)[C@H](CO)NC(=O)CNC(=O)CNC(=O)[C@H](Cc3ccccc3)NC(=O)[C@@H](Cc3ccccc3)NC(=O)OCc3ccccc3)[C@@H](C)CC)C(C)C)[C@@H](C)O)[C@@H](C)CC)[C@@H](C)CC)C(=O)O)C2=O)C1=O)C(=O)O)[C@@H](C)CC` (stereo partly shown) [[FIP-HRC450-485]2-peg11], the “stabilization of soluble F by FIP-HRC (dimer without cholesterol), FIGS. 117A-E” value with soluble MeV F [4] (55° C., 1 mM peptide, compared with FIP commercial, FIP dimer, 3 g) is “remains in its pre-fusion state incubation at 55 °C for up to two hours; also recorded: wt F is partially stabilized; also recorded: superior to commercially available stabilizer like the commercial FIP and 3 g”. In the assay with soluble MeV F [4] (wt, E455G, E170G E455G soluble F, 45° C. or 55° C. for 30', 1 uM peptide), the “stabilization of soluble F proteins on heating” value was “stabilize all the soluble F protein at both 45 °C and 55 °C”. Besides, the “stabilization of wt soluble F in pre-fusion state” value at soluble MeV F [5] is reported as “stabilize the wt soluble F”; on soluble MeV F [5] (listed as FIP-HRC-PEG11-dimer), “wt F protein remains in its pre-fusion state”. Also, the concentration for half-maximal inhibition (IC50) in assay [6] was found to be 278 ± 229 nM; in assay [2], 528 ± 635 nM. The IC90 (commonly the concentration needed for an effect of 90%) came out at 916 ± 162 nM in [6], 1180 ± 979 nM in assay [2] and 1180 ± 979 nM in assay [2] (read-out: Nectin4 IC90).
Turning to `CC[C@H](C)[C@H](NC(=O)[C@H](C)NC(=O)[C@H](CC(N)=O)NC(=O)CNC(=O)[C@H](CC(C)C)NC(=O)[C@H](CC(N)=O)NC(=O)[C@@H](NC(=O)CNC(=O)[C@@H](NC(=O)[C@H](CC(=O)O)NC(=O)[C@H](CC(C)C)NC(=O)[C@H](CCCNC(=N)N)NC(=O)[C@H](CCC(=O)O)NC(=O)[C@H](CC(C)C)NC(=O)[C@H](CO)NC(=O)[C@@H](NC(=O)[C@@H]1CCCN1C(=O)[C@@H]1CCCN1C(C)=O)[C@@H](C)CC)C(C)C)[C@@H](C)O)C(=O)N[C@@H](C)C(=O)N[C@@H](CCCCN)C(=O)N[C@@H](CC(C)C)C(=O)N[C@@H](CCC(=O)O)C(=O)N[C@@H](CC(=O)O)C(=O)N[C@@H](C)C(=O)N[C@@H](CCCCN)C(=O)N[C@@H](CCC(=O)O)C(=O)N[C@@H](CC(C)C)C(=O)N[C@@H](CC(C)C)C(=O)N[C@@H](CCC(=O)O)C(=O)N[C@@H](CO)C(=O)N[C@@H](CO)C(=O)N[C@@H](CC(=O)O)C(=O)N[C@@H](CCC(N)=O)C(=O)N[C@H](C(=O)N[C@@H](CC(C)C)C(=O)N[C@@H](CCCNC(=N)N)C(=O)NCC(=O)N[C@@H](CO)C(=O)NCC(=O)N[C@@H](CO)C(=O)NCC(=O)N[C@@H](CSC1CC(=O)N(CCCC(=O)NCCOCCOCCOCCOCCC(=O)NCCN(CCNC(=O)CCOCCOCCOCCOCCNC(=O)CCCN2C(=O)CC(SC[C@H](NC(=O)CNC(=O)[C@H](CO)NC(=O)CNC(=O)[C@H](CO)NC(=O)CNC(=O)[C@H](CCCNC(=N)N)NC(=O)[C@H](CC(C)C)NC(=O)[C@@H](NC(=O)[C@H](CCC(N)=O)NC(=O)[C@H](CC(=O)O)NC(=O)[C@H](CO)NC(=O)[C@H](CO)NC(=O)[C@H](CCC(=O)O)NC(=O)[C@H](CC(C)C)NC(=O)[C@H](CC(C)C)NC(=O)[C@H](CCC(=O)O)NC(=O)[C@H](CCCCN)NC(=O)[C@H](C)NC(=O)[C@H](CC(=O)O)NC(=O)[C@H](CCC(=O)O)NC(=O)[C@H](CC(C)C)NC(=O)[C@H](CCCCN)NC(=O)[C@H](C)NC(=O)[C@@H](NC(=O)[C@H](C)NC(=O)[C@H](CC(N)=O)NC(=O)CNC(=O)[C@H](CC(C)C)NC(=O)[C@H](CC(N)=O)NC(=O)[C@@H](NC(=O)CNC(=O)[C@@H](NC(=O)[C@H](CC(=O)O)NC(=O)[C@H](CC(C)C)NC(=O)[C@H](CCCNC(=N)N)NC(=O)[C@H](CCC(=O)O)NC(=O)[C@H](CC(C)C)NC(=O)[C@H](CO)NC(=O)[C@@H](NC(=O)[C@@H]3CCCN3C(=O)[C@@H]3CCCN3C(C)=O)[C@@H](C)CC)C(C)C)[C@@H](C)O)[C@@H](C)CC)[C@@H](C)CC)C(=O)O)C2=O)CCO[C@H]2CC[C@@]3(C)C(=CC[C@H]4[C@@H]5CC[C@H]([C@H](C)CCCC(C)C)[C@@]5(C)CC[C@@H]43)C2)C1=O)C(=O)O)[C@@H](C)CC` (stereo partly shown) [[HRC450-485-peg4]2-chol], the “protection from lethal infection” value in the assay with virus bearing L454W F was “protects suckling mice from lethal infection”. The “blocking of wt MeV infection (previous work)” value in the assay on wt MeV is “blocks infection with wt MeV in vitro, ex vivo and in vivo in cotton rats and mice”. Further, the “MeV titration of lung homogenates” value in the assay with MeV “WTFb” strain is “reduces the viral titer compared to the untreated animals”. In addition, the IC50 was found to be 100 ± 65.1 nM in assay [6] and 125 ± 175 nM in [2]. For the same compound, the values for the IC90 in assay [6], in assay [2] and in [2] (read-out: Nectin4 IC90) were 698 ± 22.3 nM, 378 ± 300 nM and 378 ± 300 nM, respectively. Also, the “spread of virus in OBC (fluorescence)” value in the assay with MeV IC323-EGFP-F L454W (10 nM) is “only partially inhibitory”; with MeV IC323-EGFP-F L454W (100 nM), “only isolated single infected cells were observed”; with MeV IC323-EGFP-F L454W (either 100 nM or 10 nM, four days after infection) it was “blocks the spread of MeV-IC323-EGFP-F L454W”. Moreover, the “reduction in the number of MeV N RNA copies” value in the assay on MeV IC323-EGFP-F L454W (IFNAR1KO OBC, 10 nM, treated post-infection, vs untreated) was 4 fold. Moreover, the “reduction of the viral load (MeV N RNA copies, RT-qPCR)” value with MeV IC323-EGFP-F L454W (IFNAR1KO OBC, 100 nM, treated post-infection, vs untreated) was 2 log. The “variation of the viral load” value with MeV IC323-EGFP-F L454W (IFNAR1KO OBC, concentrations below 10 nM) is on record as “No significant variation of the viral load”. Besides, the “dissemination of virus in OBC expressing human CD150 (SLAM)” value with MeV IC323-EGFP-F L454W (OBC from IFNAR1KO mice expressing human CD150, highest concentration) was “blocked dissemination of MeV IC323-EGFP-F L454W at least as well as WT virus”.
